In the test the target is T1, rChAT (recombinant choline acetyltransferase) (Homo sapiens, UniProt P28329).
T1 sequence (P28329 119-748): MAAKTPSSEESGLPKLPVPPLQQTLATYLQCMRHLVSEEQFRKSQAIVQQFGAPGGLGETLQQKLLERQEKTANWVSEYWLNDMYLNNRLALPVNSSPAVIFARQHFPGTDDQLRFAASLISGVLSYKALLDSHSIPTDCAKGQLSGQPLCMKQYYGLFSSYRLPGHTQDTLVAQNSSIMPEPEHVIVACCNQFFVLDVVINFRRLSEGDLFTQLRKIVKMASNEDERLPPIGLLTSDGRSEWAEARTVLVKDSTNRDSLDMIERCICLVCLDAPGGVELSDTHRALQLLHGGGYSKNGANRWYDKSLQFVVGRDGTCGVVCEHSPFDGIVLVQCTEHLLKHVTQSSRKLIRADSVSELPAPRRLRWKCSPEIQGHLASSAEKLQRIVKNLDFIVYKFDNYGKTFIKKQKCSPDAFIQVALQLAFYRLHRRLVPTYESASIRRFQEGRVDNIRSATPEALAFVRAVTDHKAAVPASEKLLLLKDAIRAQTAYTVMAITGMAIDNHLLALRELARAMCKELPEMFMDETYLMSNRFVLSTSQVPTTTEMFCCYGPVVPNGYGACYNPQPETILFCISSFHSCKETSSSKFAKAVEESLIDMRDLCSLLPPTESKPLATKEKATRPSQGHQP
Put plainly: colorimetric ChAT assay. Format: biochemical.

In general, IC50 refers to the concentration that gives 50% inhibition.

Take `C[N+](C)(C)CCC(=O)c1cccc2ccccc12` [alpha-NETA]: the IC50 worked out at 148 nM.
